This note sets out measurements from paper PMC7034070, “Synthesis, anti-inflammatory, cytotoxic, and COX-1/2 inhibitory activities of cyclic imides bearing 3-benzenesulfonamide, oxime, and β-phenylalanine scaffolds: a molecular docking study” (Journal of Enzyme Inhibition and Medicinal Chemistry, 2020).

“And” between values parts separate entries of the source, which are not always exact repeats. Equal entries are not always repeated.

One series concerns SNB-75 (CNS Cancer). As to the kind of experiment: NCI 59 cell line panel, single dose. The format is cell-based. To be noted: SNB-75, one dose 10.0 μM.
The subject of another series is 59 cancer cell lines. As to the kind of experiment: full NCI 59 cell line panel assay, single dose. The format is cell-based. To be noted: one dose 10.0 μM, 59 cell lines.
Another series concerns the target T1, COX-1 (Ovis aries, UniProt P05979).
T1 construct: purchased Cayman Chemicals Inc., Ann Arbour, MI
T1 sequence (P05979 25-600): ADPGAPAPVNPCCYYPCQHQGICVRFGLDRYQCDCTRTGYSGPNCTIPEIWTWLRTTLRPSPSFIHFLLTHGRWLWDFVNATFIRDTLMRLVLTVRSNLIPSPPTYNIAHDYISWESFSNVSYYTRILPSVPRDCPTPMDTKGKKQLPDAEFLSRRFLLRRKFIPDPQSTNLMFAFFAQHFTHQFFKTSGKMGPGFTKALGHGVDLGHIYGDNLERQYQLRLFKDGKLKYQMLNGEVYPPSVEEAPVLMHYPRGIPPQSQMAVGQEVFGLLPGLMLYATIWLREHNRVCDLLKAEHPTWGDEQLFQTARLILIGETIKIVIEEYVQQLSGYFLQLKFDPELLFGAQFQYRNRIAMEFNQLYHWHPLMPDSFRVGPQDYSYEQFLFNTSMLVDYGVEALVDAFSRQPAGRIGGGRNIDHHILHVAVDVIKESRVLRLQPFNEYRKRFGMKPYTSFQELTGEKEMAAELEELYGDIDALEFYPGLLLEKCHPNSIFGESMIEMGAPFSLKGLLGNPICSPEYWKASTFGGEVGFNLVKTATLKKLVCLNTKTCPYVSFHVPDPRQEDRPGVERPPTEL
As to the kind of experiment: colorimetric COX (ovine) inhibitor screening assay kit. The format is biochemical. To be noted: ovine COX-1, mean of two determinations. The source says:
(§1) To determine the relative ability of the test compounds and reference drugs to inhibit COX-1/COX-2 isozymes, we used the colorimetric COX (ovine) inhibitor screening assay kit (Cayman Chemicals Inc., Ann Arbour, MI), according to the manufacturer’s instructions[3]^,[10]^,[11]^,[20].

The next series has as its target T2, COX-2 (Ovis aries, UniProt P79208).
T2 construct: purchased Cayman Chemicals Inc., Ann Arbour, MI
T2 sequence (P79208 17-603): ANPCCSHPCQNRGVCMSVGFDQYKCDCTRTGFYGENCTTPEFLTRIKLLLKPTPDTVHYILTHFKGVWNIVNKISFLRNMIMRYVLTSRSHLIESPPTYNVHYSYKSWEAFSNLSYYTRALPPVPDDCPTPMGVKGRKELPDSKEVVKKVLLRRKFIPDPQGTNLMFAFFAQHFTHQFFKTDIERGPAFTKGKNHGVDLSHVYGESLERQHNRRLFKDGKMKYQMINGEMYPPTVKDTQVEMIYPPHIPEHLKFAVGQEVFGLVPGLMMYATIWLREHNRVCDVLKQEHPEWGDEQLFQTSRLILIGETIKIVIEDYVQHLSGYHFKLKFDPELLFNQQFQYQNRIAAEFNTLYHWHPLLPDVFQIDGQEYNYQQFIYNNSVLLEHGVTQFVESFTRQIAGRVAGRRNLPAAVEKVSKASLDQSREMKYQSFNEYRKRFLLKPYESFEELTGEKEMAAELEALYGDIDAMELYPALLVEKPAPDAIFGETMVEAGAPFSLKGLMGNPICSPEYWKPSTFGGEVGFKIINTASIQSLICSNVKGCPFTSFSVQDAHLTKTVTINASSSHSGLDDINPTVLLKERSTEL
The description is as above. To be noted: for SI, selectivity index (COX-1 IC50/COX-2 IC50): ovine COX-1/COX-2; for IC50: ovine COX-2, mean of two determinations. The format is biochemical.
Excerpt: as §1

For series [1], the system named is NCI-H522 (NSC Lung Cancer). The series is described as follows: NCI 59 cell line panel, single dose. The format is cell-based. The settings on record: NCI-H522, one dose 10.0 μM.
The next series has as its system UO-31 (Renal Cancer). As to the kind of experiment: NCI 59 cell line panel, single dose. The format is cell-based. The settings on record: UO-31, one dose 10.0 μM.
In series [2] the test system is carrageenan induced rat paw oedema. As to the kind of experiment: rat carrageenan-induced foot paw oedema model. The format is in vivo. To be noted: for Mean % increase in paw weight ± SEM / % Inhibition of paw oedema from control group: 2 h after carrageenan; for Mean % increase in paw weight ± SEM: control group 165.6 ± 1.6; for % Inhibition of paw oedema from control group: single dose screen (Table 1). The procedure:
Anti-inflammatory assessment of the newly synthesised compounds was carried out using an in vivo rat carrageenan-induced foot paw oedema model, as reported previously[16]^,[17].
In general terms: In the carrageenan paw model, swelling and tenderness develop within hours.

The test system of the next series is HOP-92 (NSC Lung Cancer). As to the kind of experiment: NCI 59 cell line panel, single dose. The format is cell-based. To be noted: HOP-92, one dose 10.0 μM.
The subject of another series is mice. As to the kind of experiment: Ulcerogenicity measurement. The format is in vivo. The procedure:
Ulcerogenicity was evaluated according to a previously reported method[6]^a,[17]^,[18]. The number and total length of the ulcers for each animal were measured and their averages were calculated and used as the ulcer indices.

Usually IC50 stands for the point on the concentration scale where inhibition reaches its midpoint. A high value points to weaker potency. The melting point is the temperature, or range, at which the solid turns liquid. In turn, `NS(=O)(=O)c1cccc(N2C(=O)C3CC=CCC3C2=O)c1` (centres unmarked) [Compound 3, 3-(1,3-Dioxo-1,3,3a,4,7,7a-hexahydro-2H-isoindol-2-yl)benzenesulfonamide] returned a melting point of 159 to 161 °C. The compound also yielded a GI% in the series on SNB-75 (CNS Cancer) of 12%. In addition, the “PCE (positive cytotoxic effect: cell lines with growth inhibition >10% / total number of cell lines)” value in the series with 59 cancer cell lines is 3/59. In addition, the 50% inhibitory concentration (IC50) at COX-1 is more than 50 µM. Further, on COX-2, the “SI, selectivity index (COX-1 IC50/COX-2 IC50)” value was more than 250.0 and the IC50 was found to be 0.2 µM. In addition, in [1], the GI% came out at 12%. The compound also returned a GI% in the series with UO-31 (Renal Cancer) of 16%. In [2], the “Mean % increase in paw weight ± SEM” value stood at 42.4 ± 0.2%; the “% Inhibition of paw oedema from control group” value (“% Inhibition of paw oedema” for short) is 77.0% and 77.0 ± 0.6%.
The compound `CC(C)(C)c1ccc2c(c1)C(=O)N(c1cccc(S(N)(=O)=O)c1)C2=O` [Compound 6, 3-(5-(tert-Butyl)-1,3-dioxoisoindolin-2-yl)benzenesulfonamide] gave a melting point of 151 to 153 °C. Besides, the GI% with SNB-75 (CNS Cancer) was 12%. In addition, the “PCE (positive cytotoxic effect: cell lines with growth inhibition >10% / total number of cell lines)” value with 59 cancer cell lines was 2/59. The same compound had a 50% inhibitory concentration (IC50) against COX-1 of more than 50 µM. On COX-2, the “SI, selectivity index (COX-1 IC50/COX-2 IC50)” value was more than 12.5 and the IC50 stood at 4 µM. In [2], the “Mean % increase in paw weight ± SEM” value was 106.1 ± 0.9%; the “% Inhibition of paw oedema” value was 40.9% and 40.9 ± 0.6%. Moreover, the GI% in the series on HOP-92 (NSC Lung Cancer) was found to be 19%.
As to `NS(=O)(=O)c1cccc(N2C(=O)c3c(Cl)c(Cl)c(Cl)c(Cl)c3C2=O)c1` [Compound 8], the results for the GI% in the series on SNB-75 (CNS Cancer), with UO-31 (Renal Cancer) and with HOP-92 (NSC Lung Cancer) were 13%, 17% and 11%, respectively. Besides, the “PCE (positive cytotoxic effect: cell lines with growth inhibition >10% / total number of cell lines)” value in the series with 59 cancer cell lines is recorded as 3/59. In series [2], the “Mean % increase in paw weight ± SEM” value stood at 134.0 ± 0.9%. Besides, the “% Inhibition of paw oedema” value in series [2] is 26.9% and 26.9 ± 0.5%.
On to `NS(=O)(=O)c1cccc(N2C(=O)c3cccc4cccc(c34)C2=O)c1` [Compound 10, 3-(1,3-Dioxo-1H-benzo[de]isoquinolin-2(3H)-yl)benzenesulfonamide], for which the melting point lay within 241 to 243 °C. The compound also displayed a 50% inhibitory concentration (IC50) on COX-1 of more than 50 µM. For the same compound, on COX-2, the “SI, selectivity index (COX-1 IC50/COX-2 IC50)” value was more than 14.3 and the IC50 came to 3.5 µM. For the same compound, in series [2], the “Mean % increase in paw weight ± SEM” value is listed as 93.7 ± 0.4%; the “% Inhibition of paw oedema” value was 49.2% and 49.2 ± 0.6%.
In the case of `CC(=NO)c1ccc(N2C(=O)CCC2=O)cc1` [Compound 11, 1-(4-(1-(Hydroxyimino)ethyl)phenyl)pyrrolidine-2,5-dione], the melting point lay within 184 to 186 °C. On COX-1, this compound had an IC50 of more than 50 µM. Besides, on COX-2, the “SI, selectivity index (COX-1 IC50/COX-2 IC50)” value is more than 227.3 and the midpoint of inhibition, the IC50, lay at 0.22 µM. In addition, in series [2], the “Mean % increase in paw weight ± SEM” value was 45.0 ± 0.3%; the “% Inhibition of paw oedema” value is 75.6% and 75.6 ± 0.6%.
In general, ED50 refers to the midpoint of the dose-response relation. For the compound `CC(=NO)c1ccc(N2C(=O)c3ccc([N+](=O)[O-])cc3C2=O)cc1` [Compound 18, 2-(4-(1-(Hydroxyimino)ethyl)phenyl)-5-nitroisoindoline-1,3-dione], the melting point fell in the range of 269 to 271 °C. The “Average number of ulcers” value in the series with mice (mice) is recorded as 2. Also, in the series with mice (mice, ± SEM), the “Mean sum of lengths of elongated ulcer” value was 0.9 ± 0.08 mm. In addition, the “level of ulcerogenic activity (in words)” value in the series with mice (relative to diclofenac and celecoxib) is on record as “very low levels of ulcerogenic activity”. This compound also had an IC50 on COX-1 of more than 50 µM. On COX-2, the “SI, selectivity index (COX-1 IC50/COX-2 IC50)” value is on record as more than 333.3 and inhibition was half-maximal at 0.15 µM (IC50). For the same compound, in series [2], the “Mean % increase in paw weight ± SEM” value amounted to 31.6 ± 0.4%; the “% Inhibition of paw oedema” value is 82.9% and 82.9 ± 0.8%. Further, in [2] (dose 45 mg/kg), the “Percentage inhibition of paw oedema from control group” value (“Percentage inhibition of paw oedema” for short) turned out to be 70.1%. Moreover, in [2] (dose 65 mg/kg), the “Percentage inhibition of paw oedema” value was 82.9%. Moreover, the “Percentage inhibition of paw oedema” value in series [2] (dose 80 mg/kg) turned out to be 91.9%. In series [2] (from three graded doses (45, 65, 80 mg/kg)), this compound showed an ED50 of 35.4 mg/kg.
Take `CC(=NO)c1ccc(N2C(=O)c3cccc4cccc(c34)C2=O)cc1` [Compound 19, 2-(4-(1-(Hydroxyimino)ethyl)phenyl)-1H-benzo[de]isoquinoline-1,3(2H)-dione]: the melting point is more than 300 °C. This compound gave a half-maximal inhibitory concentration (IC50) on COX-1 of more than 50 µM. Also, at COX-2, the “SI, selectivity index (COX-1 IC50/COX-2 IC50)” value is on record as more than 178.6 and the 50% inhibitory concentration (IC50) was determined as 0.28 µM. Moreover, in [2], the “Mean % increase in paw weight ± SEM” value came to 57.6 ± 0.5%; the “% Inhibition of paw oedema” value is 68.8% and 68.8 ± 0.4%.
Compound `O=C(O)CC(c1ccccc1)N1C(=O)CCC1=O` (centres unmarked) [Compound 21, 3-(2,5-Dioxopyrrolidin-1-yl)-3-phenylpropanoic acid] had a melting point of 259 to 261 °C. Moreover, inhibition against COX-1 was half-maximal at 16.6 µM (IC50). In addition, at COX-2, the “SI, selectivity index (COX-1 IC50/COX-2 IC50)” value amounted to 0.55 and the midpoint of inhibition, the IC50, lay at 30.3 µM. Further, in series [2], the “Mean % increase in paw weight ± SEM” value is 98.9 ± 0.6%; the “% Inhibition of paw oedema” value is 46.4% and 46.4 ± 0.3%.
As for `O=C(O)CC(c1ccccc1)N1C(=O)c2ccc([N+](=O)[O-])cc2C1=O` (centres unmarked) [Compound 28, 3-(5-Nitro-1,3-dioxoisoindolin-2-yl)-3-phenylpropanoic acid], the melting point fell in the range of 191 to 193 °C. This compound also came in with an IC50 on COX-1 of 18.2 µM. On COX-2, the “SI, selectivity index (COX-1 IC50/COX-2 IC50)” value is listed as 0.61 and the IC50 was determined as 30 µM. Besides, in [2], the “Mean % increase in paw weight ± SEM” value was determined as 100.9 ± 0.8%; the “% Inhibition of paw oedema” value is 42.5% and 42.5 ± 0.2%.
Regarding `O=C(O)CC(c1ccccc1)N1C(=O)c2cccc3cccc(c23)C1=O` (centres unmarked) [Compound 29, 3-(1,3-Dioxo-1H-benzo[de]isoquinolin-2(3H)-yl)-3-phenylpropanoic acid], the melting point fell in the range of 151 to 153 °C. Besides, in series [2], the “Mean % increase in paw weight ± SEM” value stood at 130.8 ± 0.7%; the “% Inhibition of paw oedema” value was 27.0% and 27.0 ± 0.1%.
